Data from patent publication US7910739B2, “Acetylcholinesterase dual inhibitors” (priority 2003, dated 2011).
Where two headings read alike, the source gives them in different places.

How the values were obtained:
[1] = target: T1, AChE (from bovine erythrocytes) (Bos taurus, UniProt P23795); test: biochemical; assay type: biochemical
T1 construct: 0.02 unit AChE (Sigma Chemical Co. from bovine erythrocytes); purchased Sigma Chemical Co; host or cells: bovine erythrocytes (natural source)
Procedure: Acetylcholinesterase (AChE) Inhibition (from Bovine Erythrocytes)
AChE inhibitory activity was evaluated at 30° C. by the colorimetric method reported by Ellman [Ellman, G. L.; Courtney, K. D.; Andres, B.; Featherstone, R. M. Biochem. Pharmacol. 1961, 7, 88-95]. The assay solution consisted of 0.1 M phosphate buffer pH 8, 0.3 mM 5,5′-dithiobis(2-nitrobenzoic acid) (DTNB, Ellman's reagent), 0.02 unit AChE (Sigma Chemical Co. from bovine erythrocytes), and 0.5 mM acetylthiocholine iodide as the substrate of the enzymatic reaction. The compounds tested were added to the assay solution and pre incubated with the enzyme for 5 min at 30° C. After that period, the substrate was added. […] The compound concentration producing 50% of AChE inhibition (IC50) was determined.

BuChE from human serum = target: T2, BuChE from human serum (Homo sapiens, UniProt P06276); test: Butyrylcholinesterase (BuChE) inhibition, Ellman colorimetric method; assay type: biochemical
T2 construct: 0.01 unit BuChE from human serum; from tissue; host or cells: human serum
Procedure: Butyrylcholinesterase (BuChE) Inhibition (from Human Serum)
BuChE inhibitory activity was evaluated at 30° C. by the colorimetric method reported by Ellman. The assay solution consisted of 0.01 unit BuChE from human serum, 0.1 M sodium phosphate buffer pH 8, 0.3 mM 5,5′-dithiobis(2-nitrobenzoic acid) (DTNB, Ellman's reagent), and 0.5 mM butyrylthiocholine iodide as the substrate of the enzymatic reaction. Enzyme activity was determined by measuring the absorbance at 405 nm during 5 minutes with a microplate reader Digiscan 340T. The tested compounds were preincubated with the enzyme for 10 minutes at 30° C. The reaction rate was calculated with, at least, triplicate measurements. The IC50 is defined as the concentration of each compound that reduces a 50% the enzymatic activity with respect to that without inhibitor.

[2] = test system: human neuroblastoma cell line SH-SY5Y; test: Toxicity measurement (LDH release); assay type: cell-based; settings: 24 hours exposure
Procedure: The cytotoxicity effect of the molecules was tested in the human neuroblastoma cell line SH-SY5Y. These cells were cultured in 96-well plates in DULBECCO'S MOD EAGLE medium, supplemented with 10% fetal bovine serum and 1% penicillin/streptomycin, and grown in a 5% CO2 humidified incubator at 37° C.
The cells were plated at 10^4 cells for each well, at least, 48 hours before the toxicity measure. Cells were exposed for 24 hours to the compounds at different concentrations (from 10^−5 to 10^−9), quantitative assessment of cell death was made by measurement of the intracellular enzyme lactate dehydrogenase (LDH) (citotoxicity detection kit, Roche). The quantity of LDH was evaluated in a microplate reader Anthos 2010, at 492 and 620 nm. Controls were taken as 100% viability.

AChE peripheral site = AChE peripheral site (Bos taurus, UniProt P23795); test: Propidium competition (fluorescence); assay type: binding; settings: 10 μM AchE, 20 μM propidium iodide, pH 8.0
Procedure: Fluorescence was measured in a Fluostar optima plate reader (BMG). Measurements were carried out in 100 μl solution volume, in 96-well plates. The buffer used wad 1 mM Tris/HCl, pH 8.0. 10 μM AchE was incubated, at least 6 hours, with the molecules at different concentrations. 20 μM propidium iodide was added 10 min before fluorescence measurement. The excitation wavelength was 485 nm, and that of emission, 620 nm.

[3] = target: T3, β-amyloid-huAChE aggregation complex (Homo sapiens, UniProt P22303); test: Inhibition of β-amyloid aggregation (Congo Red binding); assay type: biochemical; settings: Aβ1-40 0.1 mM, Aβ:huAChE 200:1, 48 hours
T3 construct: purchased Sigma-Aldrich (huAChE); rPeptide (Aβ1-40)
Procedure: Inhibition of β-Amyloid Aggregation
The generation of AChE-Aβ complexes were carried out as described previously [Alvarez, A et al. J. Neurosci., 1998, 18, 3213-3223; Muñoz, F. J.; Inestrosa, N. C. FEBS Let., 1999, 450, 205-209]. Stock solutions of Aβ1-40 (rPeptide, Georgia USA) at 3.5 mM were dissolved in PBS (pH 7.4) after HFIP treatment to obtain monomeric starting material, according to manufacture's recommendations. For co-incubation experiments, 0.1 mM of peptide was mixed with human recombinant acetylcholinesterase (huAchE, Sigma-Aldrich), in the same buffer at molar ratio Aβ:huAChE 200:1, and stirred for 48 hours in a microtiter plate at room temperature. The fibrils obtained were characterized by Congo Red (CR) binding.
For the inhibition of β-amyloid aggregation, the compounds tested were used at the IC50 defined in the previous paragraph of the biological evaluation, 50 μM propidium iodide was used as reference [Inestrosa, N. C et al., J. Neuron, 1996, 16, 881-891].
To quantify the amount of fibrils aggregated, the binding to CR was done as described [Klunk, W E.; Pettegrew, J W.; Abraham, D J. J. Hystochem Cytochem., 1989, 8, 1293-1297]. Briefly, 5.5 μl aliquot of the aggregation mixture was added to 132 μl of a 25 μM CR solution (100 mM phosphate buffer pH 7.4, 150 mM NaCl), and incubated for 30 minutes at room temperature. Absorbance was measured at 480 and 540 nm and the molarity of aggregates calculated by CR(M)=(A540/25295)−(A480/46306).

[4] = AChE from bovine erythrocytes, 30° C., pH 8, read-out: IC50 AChE
[5] = BuChE from human serum, 30° C., pH 8, read-out: IC50 BuChE

T1 sequence (P23795 other isoform, or with tags, fused parts or gaps): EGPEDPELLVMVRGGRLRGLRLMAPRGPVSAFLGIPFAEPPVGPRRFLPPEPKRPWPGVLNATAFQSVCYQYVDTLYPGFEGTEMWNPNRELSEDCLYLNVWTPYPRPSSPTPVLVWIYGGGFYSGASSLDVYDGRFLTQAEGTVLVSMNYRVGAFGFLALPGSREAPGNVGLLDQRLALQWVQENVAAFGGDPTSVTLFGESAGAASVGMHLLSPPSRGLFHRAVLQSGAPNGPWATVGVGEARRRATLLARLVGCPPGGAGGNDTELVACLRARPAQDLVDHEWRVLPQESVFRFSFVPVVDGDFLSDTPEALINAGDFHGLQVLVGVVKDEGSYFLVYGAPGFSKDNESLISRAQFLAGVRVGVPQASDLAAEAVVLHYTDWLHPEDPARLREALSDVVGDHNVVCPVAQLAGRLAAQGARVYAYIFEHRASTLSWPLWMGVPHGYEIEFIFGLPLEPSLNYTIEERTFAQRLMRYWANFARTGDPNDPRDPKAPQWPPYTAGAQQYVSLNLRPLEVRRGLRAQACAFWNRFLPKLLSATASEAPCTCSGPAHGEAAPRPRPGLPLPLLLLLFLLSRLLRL
Sequence of AChE peripheral site (P23795 other isoform, or with tags, fused parts or gaps): as above
T3 sequence (P22303 32-614, one chain of several): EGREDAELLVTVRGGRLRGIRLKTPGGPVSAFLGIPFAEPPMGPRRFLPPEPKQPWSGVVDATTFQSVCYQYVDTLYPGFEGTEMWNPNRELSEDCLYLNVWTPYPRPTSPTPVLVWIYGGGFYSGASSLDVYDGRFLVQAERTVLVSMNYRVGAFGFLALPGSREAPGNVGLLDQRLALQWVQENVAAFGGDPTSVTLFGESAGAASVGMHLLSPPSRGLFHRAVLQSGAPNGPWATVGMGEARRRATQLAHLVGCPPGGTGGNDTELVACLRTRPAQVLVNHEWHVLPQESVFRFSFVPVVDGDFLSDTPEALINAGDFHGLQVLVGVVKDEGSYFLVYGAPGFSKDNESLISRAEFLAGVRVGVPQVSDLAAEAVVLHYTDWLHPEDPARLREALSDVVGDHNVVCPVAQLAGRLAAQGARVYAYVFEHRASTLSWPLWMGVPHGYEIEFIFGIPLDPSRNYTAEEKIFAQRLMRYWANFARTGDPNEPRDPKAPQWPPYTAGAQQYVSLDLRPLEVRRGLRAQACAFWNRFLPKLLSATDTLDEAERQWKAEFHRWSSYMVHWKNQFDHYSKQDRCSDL
T2 sequence (P06276 29-602): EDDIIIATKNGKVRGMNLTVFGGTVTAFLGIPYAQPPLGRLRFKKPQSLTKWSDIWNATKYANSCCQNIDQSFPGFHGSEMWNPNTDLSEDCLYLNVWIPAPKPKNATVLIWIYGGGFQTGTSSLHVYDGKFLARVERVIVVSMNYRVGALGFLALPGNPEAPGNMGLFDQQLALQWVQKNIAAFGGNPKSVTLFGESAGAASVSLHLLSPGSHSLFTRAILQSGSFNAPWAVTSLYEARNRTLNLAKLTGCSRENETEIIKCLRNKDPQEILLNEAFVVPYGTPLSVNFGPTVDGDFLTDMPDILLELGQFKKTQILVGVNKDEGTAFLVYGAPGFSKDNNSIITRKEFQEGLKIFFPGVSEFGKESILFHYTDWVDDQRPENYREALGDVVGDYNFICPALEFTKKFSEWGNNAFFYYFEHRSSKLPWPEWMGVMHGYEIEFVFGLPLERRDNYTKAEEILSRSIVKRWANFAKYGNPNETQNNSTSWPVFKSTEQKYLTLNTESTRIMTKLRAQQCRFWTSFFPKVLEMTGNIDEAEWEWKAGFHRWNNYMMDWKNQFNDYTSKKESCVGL

Row | Structure (SMILES) | IC50 [1, 4] [nM] | IC50 (BuChE from human serum; [5]) [nM] | Toxicity [2] [µM] | Propidium competition (AChE peripheral site) [µM] | reduction in the β-amyloid-huAChE aggregation complex ([3]; compound used at its IC50) [%] | IC50 [1] [nM] | IC50 (BuChE from human serum) [nM] | reduction in the β-amyloid-huAChE aggregation complex ([3]; 50 μM propidium iodide as reference) [%]
1 | Clc1ccc2c(NCCc3c[nH]c4ccccc34)c3c(nc2c1)CCCC3 [Comparative Example, N-[2-3(Indolyl)ethyl]-6-chlorotacrine, reference compound] | 537 |  |  |  |  |  |  | 
2 | O=C(CCc1c[nH]c2ccccc12)NCCCCCNc1c2c(nc3ccccc13)CCCC2 [Compound 2, 3-(1H-Indol-3-yl)-N-[5-(1,2,3,4-tetrahydro-acridin-9-ylamino)-pentyl]-propionamide] | 70 | 1 | >100 | 10 |  |  |  | 
3 | O=C(CCc1c[nH]c2ccccc12)NCCCCCCNc1c2c(nc3cc(Cl)ccc13)CCCC2 [Compound 3] | 0.02 | 2.9 | 100 | 1000 | 15 |  |  | 
4 | O=C(CCc1c[nH]c2ccccc12)NCCCCCCCNc1c2c(nc3cc(Cl)ccc13)CCCC2 [Compound 4, N-[7-(6-Chloro-1,2,3,4-tetrahydro-acridin-9-ylamino)-heptyl]-3-(1H-indol-3-yl)-propionamide] | 0.06 | 0.1 | 10 | 10 |  |  |  | 
5 | O=C(CCc1c[nH]c2ccccc12)NCCCCCCCCNc1c2c(nc3cc(Cl)ccc13)CCCC2 [Compound 5, N-[8-(6-Chloro-1,2,3,4-tetrahydro-acridin-9-ylamino)-octyl]-3-(1H-indol-3-yl)propionamide] | 0.5 | 5.7 | 10 | 10 |  |  |  | 
6 | O=C(CCc1c[nH]c2ccccc12)NCCCCCCCCCNc1c2c(nc3cc(Cl)ccc13)CCCC2 [Compound 6, N-[9-(6-Chloro-1,2,3,4-tetrahydro-acridin-9-ylamino)-nonyl]-3-(1H-indol-3-yl)-propionamide] |  | 9.6 | >100 | >100 |  |  |  | 
7 | O=C(CCc1c[nH]c2ccccc12)NCCCCCCCCCCNc1c2c(nc3cc(Cl)ccc13)CCCC2 [Compound 7, N-[10-(6-Chloro-1,2,3,4-tetrahydro-acridin-9-ylamino)-decyl]-3-(1H-indol-3-yl)-propionamide] | 21.9 | 54 | >100 | 10 |  |  |  | 
8 | CN(CCCNC(=O)CCc1c[nH]c2ccccc12)CCCNc1c2c(nc3ccccc13)CCCC2 [Compound 8, N-(3-{[3-(1,2,3,4-tetrahydro-acridin-9-ylamino)-propyl]-methyl-amino}-propyl)-3-(1H-indol-3-yl)propionamide] | 147 | 0.03 | >100 | 1000 | 17 |  |  | 
9 | CN(CCCNC(=O)CCc1c[nH]c2ccccc12)CCCNc1c2c(nc3cc(Cl)ccc13)CCCC2 [Compound 9, N-(3-{[3-(6-chloro-1,2,3,4-tetrahydro-acridin-9-ylamino)-propyl]-methyl-amino}-propyl)-3-(1H-indol-3-yl)-propionamide] | 2.88 | 7.57 | >100 | 10 |  |  |  | 
10 | O=C(NCCCCCNc1c2c(nc3cc(Cl)ccc13)CCCC2)c1c[nH]c2ccccc12 [Compound 10, 1H-Indole-3-carboxylic acid [5-(6-chloro-1,2,3,4-tetrahydro-acridin-9-ylamino)-pentyl]-amide] | 180 | 9.5 | >10 | 100 |  |  |  | 
11 | O=C(NCCCCCCNc1c2c(nc3cc(Cl)ccc13)CCCC2)c1c[nH]c2ccccc12 [Compound 11, 1H-Indole-3-carboxylic acid [6-(6-chloro-1,2,3,4-tetrahydro-acridin-9-ylamino)-hexyl]-amide] | 33 | 1.7 | >10 | 100 |  |  |  | 
12 | O=C(NCCCCCCCNc1c2c(nc3cc(Cl)ccc13)CCCC2)c1c[nH]c2ccccc12 [Compound 12, 1H-Indole-3-carboxylic acid [7-(6-chloro-1,2,3,4-tetrahydro-acridin-9-ylamino)-heptyl]-amide] | 36 | 19 | >10 | 100 |  |  |  | 
13 | O=C(NCCCCCCCCNc1c2c(nc3cc(Cl)ccc13)CCCC2)c1c[nH]c2ccccc12 [Compound 13, 1H-Indole-3-carboxylic acid [8-(6-chloro-1,2,3,4-tetrahydro-acridin-9-ylamino)octyl]-amide] | 46 | 22.4 | >10 | 10 |  |  |  | 
14 | O=C(CCCc1c[nH]c2ccccc12)NCCCCCCNc1c2c(nc3cc(Cl)ccc13)CCCC2 [Compound 16, N-[6-(6-Chloro-1,2,3,4-tetrahydro-acridin-9-ylamino)-hexyl]4-(1H-Indol-3-yl)-butyramide] | 0.48 | 5.6 | >10 | 100 |  |  |  | 
15 | O=C(Cc1c[nH]c2ccc(Br)cc12)NCCCCCCCNc1c2c(nc3cc(Cl)ccc13)CCCC2 [Compound 18, 2-(5-Bromo-1H-indol-3-yl)-N-[7-(6-chloro-1,2,3,4-tetrahydro-acridin-9-ylamino)-heptyl]-acetamide] |  | 1.7 | >10 | 100 |  | 0.63 |  | 
16 | O=C(NCCCCCCCNc1c2c(nc3cc(Cl)ccc13)CCCC2)c1n[nH]c2ccccc12 [Compound 21, 1H-Indazole-3-carboxylic acid [7-(6-chloro-1,2,3,4-tetrahydroacridin-9-ylamino)heptyl]-amide] | 95 | 79 | >10 | 100 |  |  |  | 
17 | O=C(NCCCCCCNc1c2c(nc3cc(Cl)ccc13)CCCC2)OCCc1c[nH]c2ccccc12 [Compound 24, [6-(6-Chloro-1,2,3,4-tetrahydro-acridin-9-ylamino)-hexyl]-carbamic Acid 2-(1h-indol-3-yl)ethyl Ester] | 0.7 |  | >10 | 100 |  |  | 3.2 | 
18 | CC[N+](C)(CC)CCC[n+]1c(-c2ccccc2)c2cc(N)ccc2c2ccc(N)cc21 [propidium iodide, reference compound] |  |  |  |  |  |  |  | 10
